Data taken from patent US10590118B2, “Bicyclic heterocyclic derivatives as bromodomain inhibitors” (Orion Corporation, priority 2014, dated 2020).

Target: T1, Bet bromodomain protein (BRD4) (Homo sapiens, UniProt O60885)
T1 construct: made in house
Assay: Bet bromodomain TR-FRET assay
Type: binding
Settings: 300 nM acetyl histone peptide substrate, results given as Group A/B/C
Outline: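 In-house BRD4 protein with 300 nM acetyl histone peptide in 50 mM HEPES pH 7.5, 50 mM NaCl, 500 μM CHAPS; 30 min RT, then serially diluted compound for 30 min RT. Eu-streptavidin (2 nM) and XL-665 antibody (10 nM) added for 30 min; 665/615 nm ratio read, IC50 from sigmoid dose-response fit.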

Row | Structure (SMILES) | IC50 [µM]
1 | COc1cc2c(cc1-c1c(C)noc1C)OCC(=O)N2C(C)c1ccncc1 (single isomer, unassigned) [Compound 19, 7-(3,5-dimethylisoxazol-4-yl)-6-methoxy-4-(1-(pyridin-4-yl)ethyl)-2H-benzo[b][1,4]oxazin-3(4H)-one] | > 3
2 | COc1cc2c(cc1-c1c(C)noc1C)c(C#N)c(C)c(=O)n2CCc1ccc(Cl)cc1 [Compound 105, 1-(4-chlorophenethyl)-6-(3,5-dimethylisoxazol-4-yl)-7-methoxy-3-methyl-2-oxo-1,2-dihydroquinoline-4-carbonitrile] | > 3
3 | COc1cc2c(ccc(=O)n2Cc2ccccn2)cc1-c1ccc(O)nc1 [Compound 61, 6-(6-hydroxypyridin-3-yl)-7-methoxy-1-(pyridin-2-ylmethyl)quinolin-2(1H)-one] | > 3
4 | COc1cc2c(cc1-c1c(C)noc1C)C(C)(C)CC(=O)N2Cc1ccccn1 [Compound 48, 6-(3,5-dimethylisoxazol-4-yl)-7-methoxy-4,4-dimethyl-1-(pyridin-2-ylmethyl)-3,4-dihydroquinolin-2(1H)-one] | > 3
5 | COc1cc2c(cc1-c1c(C)noc1C)OCC(=O)N2C(C)c1ccncc1 (single isomer, unassigned) [Compound 20, 7-(3,5-dimethylisoxazol-4-yl)-6-methoxy-4-(1-(pyridin-4-yl)ethyl)-2H-benzo[b][1,4]oxazin-3(4H)-one] | ≤ 1
6 | Cc1noc(C)c1-c1cc2ccc(=O)n(Cc3ccccn3)c2cc1OCC1CCNCC1 [Compound 77, 6-(3,5-dimethylisoxazol-4-yl)-7-(piperidin-4-ylmethoxy)-1-(pyridin-2-ylmethyl)quinolin-2(1H)-one] | ≤ 1
7 | COc1cc2c(ccc(=O)n2Cc2ccc3ccccc3n2)cc1-c1c(C)noc1C [Compound 57, 6-(3,5-dimethylisoxazol-4-yl)-7-methoxy-1-(quinolin-2-ylmethyl)quinolin-2(1H)-one] | 1 to 3
8 | COc1cc2c(cc1-c1c(C)noc1C)OCC(=O)N2Cc1ccccn1 [Compound 22, 7-(3,5-dimethytisoxazol-4-yl)-6-methoxy-4-(pyridin-2-ylmethyl)-2H-benzo[b][1,4]oxazin-3(4H)-one] | ≤ 1
9 | COCCOc1cc2c(cc1-c1c(C)noc1C)OCC(=O)N2Cc1ccncc1 [Compound 71, 7-(3,5-dimethylisoxazol-4-yl)-6-(2-methoxyethoxy)-4-(pyridin-4-ylmethyl)-2H-benzo[b][1,4]oxazin-3(4H)-one] | > 3
10 | Cc1noc(C)c1-c1cc2ccc(=O)n(Cc3ccccn3)c2cc1OCCN(C)C [Compound 76, 7-(2-(dimethylamino)ethoxy)-6-(3,5-dimethylisoxazol-4-yl)-1-(pyridin-2-ylmethyl)quinolin-2(1H)-one] | > 3
11 | COc1cc2c(cc1-c1c(C)noc1C)OCC(=O)N2Cc1ccc(O)nc1 [Compound 70] | > 3
12 | COc1cc2c(ccc(=O)n2Cc2ccccn2)cc1C1=C(C)C(=O)NC1=O [Compound 92, 3-(7-methoxy-2-oxo-1-(pyridin-2-ylmethyl)-1,2-dihydroquinolin-6-yl)-4-methyl-1H-pyrrole-2,5-dione] | > 3
13 | COc1cc2c(cc1-c1c(C)noc1C)cc(CF)c(=O)n2Cc1ccccn1 [Compound 97, 6-(3,5-dimethylisoxazol-4-yl)-3-(fluoromethyl)-7-methoxy-1-(pyridin-2-ylmethyl)quinolin-2(1H)-one] | ≤ 1
14 | COc1cc2c(cc1NS(=O)(=O)c1c(C)noc1C)OCC(=O)N2Cc1ccc(Cl)cc1 [Compound 13, N-(4-(4-chlorobenzyl)-6-methoxy-3-oxo-3,4-dihydro-2H-benzo[b][1,4]oxazin-7-yl)-3,5-dimethylisoxazole-4-sulfonamide] | > 3
15 | C=CCOc1cc2c(ccc(=O)n2Cc2ccccn2)cc1-c1c(C)noc1C [Compound 79, 7-(allyloxy)-6-(3,5-dimethylisoxazol-4-yl)-1-(pyridin-2-ylmethyl)quinolin-2(1H)-one] | ≤ 1
16 | COc1cc2c(cc1-c1c(C)noc1C)OCC(=O)N2C(C)c1cccnc1 (single isomer, unassigned) [Compound 24, 7-(3,5-dimethytisoxazol-4-yl)-6-methoxy-4-(1-(pyridin-3-yl)ethyl)-2H-benzo[b][1,4]oxazin-3(4H)-one] | ≤ 1
17 | Cc1noc(C)c1-c1cc2ccc(=O)n(Cc3ccccn3)c2cc1OC(F)(F)F [Compound 85, 6-(3,5-dimethylisoxazol-4-yl)-1-(pyridin-2-ylmethyl)-7-(trifluoromethoxy)quinolin-2(1H)-one] | 1 to 3
18 | COc1cc2c(cc1-c1c(C)noc1C)OCC(=O)N2CC1CCNCC1 [Compound 60, 7-(3,5-dimethylisoxazol-4-yl)-6-methoxy-4-(piperidin-4-ylmethyl)-2H-benzo[b][1,4]oxazin-3(4H)-one] | > 3
19 | COc1cc2c(ccc(=O)n2CCN2CCOCC2)cc1-c1c(C)noc1C [Compound 38, 6-(3,5-dimethylisoxazol-4-yl)-7-methoxy-1-(2-morpholinoethyl)quinolin-2(1H)-one] | ≤ 1
